The values that follow come from ChEMBL document CHEMBL4613224, “Synthesis, in-vitro antiprotozoal activity and molecular docking study of isothiocyanate derivatives” (Bioorg Med Chem, 2020).

The term IC50 denotes the midpoint of a concentration-inhibition curve. The term inhibition denotes how much of the control response was suppressed.

Data set [1] has as its system Trypanosoma brucei rhodesiense. Kind of data set: Antitrypanosomal activity against bloodstream Trypanosoma brucei rhodesiense STIB900 assessed as parasite growth inhibition measured after 70 hrs by Alamar blue assay. It counts as functional, organism-based. As to conditions: STIB900, 70 h. For orientation: The colour change of resazurin is a common sign of viable cells or microbes.

Data set [2] relates to Trypanosoma cruzi. The data set is described as follows: Antitrypanosomal activity against Trypanosoma cruzi Tulahuen C4 trypomastigotes infected in rat L6 cells assessed as parasite growth inhibition at 2 ug/ml measured after 96 hrs by inverted microscopy analysis relative to control. It counts as functional. As to conditions: for inhibition at 2 µg/mL: Tulahuen C4, L6, 96 h.

In data set [3] the test system is Leishmania donovani. Kind of data set: Antileishmanial activity against Leishmania donovani MHOM-ET-67/L82 axenic amastigotes assessed as parasite growth inhibition measured after 72 hrs by Alamar blue based inverted microscopy analysis. The format is functional, organism-based. As to conditions: MHOM-ET-67/L82, 72 h.
The test system of a further data set is L6. The data set is described as follows: Cytotoxicity against rat L6 cells assessed as reduction in cell viability measured after 72 hrs by Alamar blue based inverted microscopy analysis. As to conditions: L6, 72 h, read-out: IC50.
The test system of data set [4] is Plasmodium falciparum. Kind of data set: Antiplasmodial activity against Plasmodium falciparum NF54 measured after 24 hrs in presence of [3H] hypoxanthine by liquid scintillation counter analysis. It counts as functional, organism-based.
Data set [5] is described as follows: Selectivity index, ratio of IC50 for rat L6 cells assessed as reduction in cell viability measured after 72 hrs by Alamar blue based inverted microscopy analysis to IC50 for bloodstream Trypanosoma brucei rhodesiense STIB900 assessed as parasite growth inhibition measured after 70 hrs by Alamar blue assay. The format is toxicity. As to conditions: read-out: Ratio IC50.

The nature of data set [6]: Selectivity index, ratio of IC50 for rat L6 cells assessed as reduction in cell viability measured after 72 hrs by Alamar blue based inverted microscopy analysis to IC50 for Leishmania donovani MHOM-ET-67/L82 axenic amastigotes assessed as parasite growth inhibition measured after 72 hrs by Alamar blue based inverted microscopy analysis. It counts as toxicity. As to conditions: for selectivity ratio at 72 h: L6 cells, read-out: Ratio IC50.

Data set [7] is described as follows: Selectivity index, ratio of IC50 for rat L6 cells assessed as reduction in cell viability measured after 72 hrs by Alamar blue based inverted microscopy analysis to IC50 for Plasmodium falciparum NF54 measured after 24 hrs in presence of [3H] hypoxanthine by liquid scintillation counter analysis. The format is toxicity. As to conditions: read-out: Ratio IC50.

Data set [8] relates to Trypanosoma brucei rhodesiense. Kind of data set: Antitrypanosomal activity against bloodstream Trypanosoma brucei rhodesiense STIB900 assessed as parasite growth inhibition at 2 ug/ml measured after 70 hrs by Alamar blue assay relative to control. It counts as functional. As to conditions: STIB900, 70 h.
Data set [9] deals with Leishmania donovani. Kind of data set: Antileishmanial activity against Leishmania donovani MHOM-ET-67/L82 axenic amastigotes assessed as parasite growth inhibition at 2 to 10 ug/ml measured after 72 hrs by Alamar blue based inverted microscopy analysis relative to control. It counts as functional.
Data set [10] relates to Leishmania donovani. The data set is described as follows: Potency index, ratio of miltefosine IC50 to test compound IC50 for antileishmanial activity against Leishmania donovani MHOM-ET-67/L82 axenic amastigotes assessed as parasite growth inhibition measured after 72 hrs by Alamar blue based inverted microscopy analysis. The format is functional.
The subject of data set [11] is Trypanosoma cruzi. The data set is described as follows: Antitrypanosomal activity against Trypanosoma cruzi Tulahuen C4 trypomastigotes infected in rat L6 cells assessed as parasite growth inhibition measured after 96 hrs by inverted microscopy analysis. It counts as functional, organism-based. As to conditions: Tulahuen C4, L6, 96 h.
Data set [12] in a line: Selectivity index, ratio of IC50 for rat L6 cells assessed as reduction in cell viability measured after 72 hrs by Alamar blue based inverted microscopy analysis to IC50 for Trypanosoma cruzi Tulahuen C4 trypomastigotes infected in rat L6 cells assessed as parasite growth inhibition measured after 96 hrs by inverted microscopy analysis. It counts as toxicity. As to conditions: read-out: Ratio IC50.

Data set [13] has as its system Trypanosoma brucei brucei. Kind of data set: Antitrypanosomal activity against Trypanosoma brucei brucei assessed as parasite growth inhibition. It counts as functional, organism-based.
Data set [14] relates to Plasmodium falciparum. Kind of data set: Antiplasmodial activity against Plasmodium falciparum K1 assessed as reduction in parasite growth by [3H]-hypoxanthine incorporation assay. It counts as functional, organism-based.

Activity calls are given as the source filed them. The calls are words filed in the database; no cut-off is given here.

Turning to `C[C@@H](CCCN=C=S)[C@H]1CC[C@H]2[C@@H]3CC[C@@H]4C[C@H](O)CC[C@]4(C)[C@H]3C[C@H](O)[C@]12C`, the IC50 in [1] was found to be 1.1 µM; with Leishmania donovani [3] it was 0.4 µM; in the data set on L6 it was 3.6 µM; with Plasmodium falciparum [4], 3.4 µM. For the same compound, the inhibition entry in the data set with Trypanosoma cruzi [2] was “inactive”. Moreover, the results for the selectivity ratio at 72 h in data set [5], in data set [6] and in data set [7] were 3.3, 9.9 and 1.1, respectively. In addition, in data set [8], the inhibition at 2 µg/mL was more than 50%. Also, the “inhibition (INH)” value in the data set on Leishmania donovani [9] was more than 90%. In the data set on Leishmania donovani [10], the “Ratio IC50” value is listed as 2.
In the case of `COc1ccc2c(c1OC)CO[C@@H]2[C@H]1c2c(cc3c(c2OC)OCO3)CCN1C(CN=C=S)c1cccnc1` (stereo not given in full), the IC50 in data set [1] is 2.7 µM; in the data set on Trypanosoma cruzi [11], 1.9 µM; with Leishmania donovani [3], 0.9 µM; with L6 it was 7.1 µM; in the data set on Plasmodium falciparum [4], 2.5 µM. Besides, the inhibition at 2 µg/mL was 100% with Trypanosoma cruzi [2] and more than 50% in [8]. Besides, the selectivity ratio at 72 h in data set [5] was found to be 2.6; in data set [12] it was 3.8; in [6], 8; in data set [7], 2.9. Also, the “inhibition (INH)” value with Leishmania donovani [9] is recorded as more than 90%.
For the compound `COc1ccc2c(c1OC)CO[C@@H]2[C@H]1c2c(cc3c(c2OC)OCO3)CCN1[C@@H](CN)c1ccc(F)cc1`, the IC50 in data set [1] was 1.3 µM; with Trypanosoma cruzi [11], 10.6 µM; with L6 it was 38.8 µM; in the data set on Plasmodium falciparum [4], 2.7 µM. Moreover, the inhibition at 2 µg/mL in the data set with Trypanosoma cruzi [2] is 53%; in [8], more than 50%. In addition, the selectivity ratio at 72 h is 29.3 in data set [5], 3.7 in data set [12] and 14.5 in [7].
Turning to `O=C(Cn1ccnc1[N+](=O)[O-])NCc1ccccc1` [BENZNIDAZOLE], the IC50 was 2.41 µM in the data set on Trypanosoma cruzi [11] and more than 380 µM in the data set with L6. In addition, the selectivity ratio at 72 h was more than 158 in [12] and 196 in [6].
As for `C[C@@H](CCCN=C=S)[C@H]1CC[C@H]2[C@@H]3[C@H](O)C[C@@H]4C[C@H](O)CC[C@]4(C)[C@H]3C[C@H](O)[C@]12C`, the IC50 was determined as 1.3 µM in [1], 0.5 µM in the data set on Leishmania donovani [3], 3.9 µM in the data set with L6 and 5.2 µM in the data set on Plasmodium falciparum [4]. Also, in the data set on Trypanosoma cruzi [2], the inhibition result was “inactive”. The figures for the selectivity ratio at 72 h in data set [5], in data set [6] and in [7] were 2.9, 7.8 and 0.7, respectively. In addition, the inhibition at 2 µg/mL in [8] was more than 50%. The “inhibition (INH)” value in the data set with Leishmania donovani [9] is given as more than 90%.
As to `CNCCc1c([C@H]2[C@H]3[C@H](C=C(C)CC3(C)C)c3c(CCNC)c4ccccc4n32)[nH]c2ccccc12`, the IC50 in data set [13] came to 2.8 µM.
Consider `CC(C)c1ccc2c(c1)CC[C@H]1[C@](C)(CN=C=S)CCC[C@]21C`, for which the IC50 came to 5.7 µM in data set [1], 4.2 µM in the data set on Leishmania donovani [3], 10 µM in the data set on L6 and 1.1 µM with Plasmodium falciparum [4]. The inhibition entry in the data set with Trypanosoma cruzi [2] is “inactive”. The values for the selectivity ratio at 72 h in data set [5], in data set [6] and in [7] were 1.8, 2.4 and 9.4, respectively. For the same compound, the inhibition at 2 µg/mL in data set [8] is more than 50%. Besides, in the data set with Leishmania donovani [9], the “inhibition (INH)” value is more than 90%.
For the compound `C[C@@H](CCCN=C=S)[C@H]1CC[C@H]2[C@@H]3[C@H](O)C[C@@H]4C[C@H](O)CC[C@]4(C)[C@H]3CC[C@]12C`, the IC50 in data set [1] was 4.5 µM; in the data set on Leishmania donovani [3] it was 1.5 µM; with L6 it was 5.4 µM; in the data set on Plasmodium falciparum [4] it was 4.9 µM. The inhibition result in the data set on Trypanosoma cruzi [2] was “inactive”. Besides, the selectivity ratio at 72 h in data set [5] came out at 1.2; in data set [6], 3.6; in data set [7] it was 1.1. In addition, the inhibition at 2 µg/mL in data set [8] was more than 50%. Further, the “inhibition (INH)” value with Leishmania donovani [9] was more than 90%.
On to `COc1ccc2c(c1OC)CO[C@@H]2[C@H]1c2c(cc3c(c2OC)OCO3)CCN1[C@@H](CN=C=S)c1ccc(F)cc1`, for which the half-inhibitory concentration (IC50) in data set [1] is 1.7 µM; in the data set on Leishmania donovani [3] it was 0.8 µM; with L6, 13.6 µM; with Plasmodium falciparum [4] it was 2.1 µM. Moreover, the inhibition entry with Trypanosoma cruzi [2] is “inactive”. Also, the figures for the selectivity ratio at 72 h in data set [5], in data set [6] and in data set [7] were 8, 17.5 and 6.5, respectively. For the same compound, the inhibition at 2 µg/mL in data set [8] was more than 50%. In addition, in the data set with Leishmania donovani [9], the “inhibition (INH)” value is listed as more than 90%.
Regarding `CC(C)=C[C@H]1C[C@H](/C=C/c2[nH]c3ccccc3c2CCN(C)C)n2c1c(CCN(C)C)c1ccccc12`, the IC50 in data set [13] was determined as 6.2 µM.
`COC(=O)[C@H](Cc1c[nH]c2ccccc12)N=C=S`: the IC50 came out at 22.5 µM in [1], 7.1 µM in the data set on Leishmania donovani [3], 78.1 µM with L6 and 10.2 µM in the data set with Plasmodium falciparum [4]. Besides, the inhibition entry with Trypanosoma cruzi [2] was “inactive”. Besides, the selectivity ratio at 72 h came to 3.5 in data set [5], 10.9 in data set [6] and 7.7 in data set [7]. Moreover, in data set [6] (72 h), the “Ratio IC50” value is 14.4. In addition, in data set [8], the inhibition at 2 µg/mL is more than 50%. The “inhibition (INH)” value in the data set with Leishmania donovani [9] was more than 90%.
Regarding `COc1ccc([C@H](O)[C@H]2c3c(cc4c(c3OC)OCO4)CCN2C)c(CO)c1OC`, in the data set with Plasmodium falciparum [14], the IC50 was 8 µM.
